Measured values from patent US20080234223A1, “N4 MODIFICATIONS OF PYRIMIDINE ANALOGS AND USES THEREOF” (UNIVERSITY OF SOUTHERN CALIFORNIA, priority 2006, published 2008).

Assays:
[1] = rapid deamination by plasma cytidine deaminase; cited from earlier work
[2] = test system: LINE-1 DNA methylation in T24 cells (bladder); test: Global DNA methylation, bisulfite-PCR pyrosequencing of LINE-1, T24 cells; assay type: cell-based; settings: for decrease in global DNA methylation (LINE-1): three days; for LINE-1 methylation level after treatment: baseline 47.3%
Description: (§1) T24 cells (urinary bladder transitional cell carcinoma), MCF7 (breast adenocarcinoma), HepG2 cells (hepatocellular carcinoma), Hep3B (hepatocellular carcinoma), were obtained from American Type Culture Collection (Manassas, Va.). T24 were cultured in McCoy's 5A medium supplemented with 10% fetal bovine serum. Other cells were cultured in DMEM medium plus 10% fetal bovine serum. All cells were grown in a humidified 37° C. incubator containing 5% CO2.
(§2) Cells were seeded at 2×10^4 cells per well in a 12-well dish 24 hours prior to treatments. Cells were treated with 5-Aza-CdR (Sigma-Aldrich Chemical Company, St. Louis, Mo.), NPEOC-DAC at the indicated concentrations. 5-aza-2′-deoxyazacytidine was dissolved in distilled water and NPEOC-DAC was dissolved in dimethyl sulfoxide (DMSO). Untreated controls of the DMSO solvent alone were also included. Cells were treated at the concentrations indicated for each experiment. Cells were collected after the number of days indicated in individual experiments. For subsequent methylation, genomic DNA was extracted using standard phenol/chloroform extraction methods, as described previously (27). Each experiment was done in triplicate and standard deviations are indicated by error bars.
(§3) Bisulfite modification of genomic DNA has been described previously (28). In brief, 1.5 μg of DNA was denatured in 50 μl of 0.2 M NaOH for 10 min at 37° C. Then, 30 μl of freshly prepared 10 mM hydroquinone (Sigma) and 520 μl of 3 M sodium bisulfite (Sigma) at pH 5.0 were added and mixed. The samples were overlaid with mineral oil to prevent evaporation and incubated at 50° C. for 16 h. The bisulfite-treated DNA was isolated using Wizard DNA Clean-Up System (Promega). The DNA was eluted by 50 microliters of warm water and 5.5 microliters of 3 M NaOH were added for 5 min. The DNA was ethanol precipitated with glycogen as a carrier and resuspended in 20 microliters of water. Bisulfite treated DNA was stored at −20° C. until ready for use.
(§4) Bisulfite-converted DNA was used for pyrosequencing analysis as previously described (29). In brief, PCR product of each gene was used for individual sequencing reaction. Streptavidin-Sepharose beads (Amersham Biosciences, Uppsala, Sweden) and Vacuum Prep Tool (Biotage AB, Uppsala, Sweden) was used to purify the single-stranded biotinylated PCR product per the manufacturer's recommendation. The appropriate sequencing primer was annealed to the purified PCR product and used for a pyrosequencing reaction using the PSQ 96HS system (Biotage AB, Uppsala, Sweden). Raw data were analyzed with the allele quantification algorithm using the provided software. Pyrosequencing was done for LINE-1 elements and ID4 tumor suppressor gene.

[3] = test system: LINE-1 DNA methylation in MCF7 cells (breast); test: Global DNA methylation, bisulfite-PCR pyrosequencing of LINE-1, MCF7 cells; assay type: cell-based; settings: MCF; 10 μM; three days
Description: as §1
as §2, with “For subsequent methylation, genomic DNA was extracted using standard phenol/chloroform extraction methods, as described previously (27). Each experiment was done in triplicate and standard deviations are indicated by error bars.” left out
(§5) Bisulfite modification of genomic DNA has been described previously (28). […] Bisulfite treated DNA was stored at −20° C. until ready for use.
(§6) Bisulfite-converted DNA was used for pyrosequencing analysis as previously described (29). […] Raw data were analyzed with the allele quantification algorithm using the provided software. […]

[4] = test system: LINE-1 DNA methylation in HepG2 cells (liver); test: Global DNA methylation, bisulfite-PCR pyrosequencing of LINE-1, HepG2 cells; assay type: cell-based; settings: for LINE-1 methylation level after treatment / LINE-1 methylation level, time course / decrease in global DNA methylation (LINE-1): HepG2; for LINE-1 methylation level after treatment: 3 days, untreated baseline 53.9%; for LINE-1 methylation level, time course: 10 μM continual treatment, baseline 53.9%; for decrease in global DNA methylation (LINE-1): three days
Description: as §1, §2, §3, §4

[5] = test system: LINE-1 DNA methylation in Hep3B cells (liver); test: Global DNA methylation, bisulfite-PCR pyrosequencing of LINE-1, Hep3B cells; assay type: cell-based; settings: 10 μM, three days
Description: as §1
as §2, with “For subsequent methylation, genomic DNA was extracted using standard phenol/chloroform extraction methods, as described previously (27). Each experiment was done in triplicate and standard deviations are indicated by error bars.” left out
as §5, §6

[6] = test system: ID4 DNA methylation in T24 cells; test: ID4 gene methylation, bisulfite-PCR pyrosequencing, T24 cells; assay type: cell-based; settings: 10 μM, 3 days, baseline 40.2%
Description: as §1
as §2, with “For subsequent methylation, genomic DNA was extracted using standard phenol/chloroform extraction methods, as described previously (27). Each experiment was done in triplicate and standard deviations are indicated by error bars.” left out
as §5, §6

[7] = test system: ID4 DNA methylation in MCF7 cells; test: ID4 gene methylation, bisulfite-PCR pyrosequencing, MCF7 cells; assay type: cell-based; settings: MCF; 10 μM; 3 days; baseline 39.0%
Description: as §1
as §2, with “For subsequent methylation, genomic DNA was extracted using standard phenol/chloroform extraction methods, as described previously (27). Each experiment was done in triplicate and standard deviations are indicated by error bars.” left out
as §5, §6

[8] = test system: ID4 DNA methylation in HepG2 cells; test: ID4 gene methylation, bisulfite-PCR pyrosequencing, HepG2 cells; assay type: cell-based; settings: 10 μM, 3 days, baseline 94.7%
Description: as §1
as §2, with “For subsequent methylation, genomic DNA was extracted using standard phenol/chloroform extraction methods, as described previously (27). Each experiment was done in triplicate and standard deviations are indicated by error bars.” left out
as §5, §6

[9] = test system: ID4 DNA methylation in Hep3B cells; test: ID4 gene methylation, bisulfite-PCR pyrosequencing, Hep3B cells; assay type: cell-based; settings: 10 μM, 3 days, baseline 95.4%
Description: as §1
as §2, with “For subsequent methylation, genomic DNA was extracted using standard phenol/chloroform extraction methods, as described previously (27). Each experiment was done in triplicate and standard deviations are indicated by error bars.” left out
as §5, §6

[10] = test system: ID4 expression in HepG2 cells; test: ID4 mRNA expression by RT-PCR in HepG2 cells; assay type: cell-based; settings: 3 days of treatment, untreated cells no detectable ID4
Description: Genomic DNA was isolated by standard proteinase K digestion and phenol-chloroform extraction (26). Total RNA was collected and extracted from cultured cells with the RNeasy Protect minikit (Qiagen, Valencia, Calif.) according to the manufacturer's protocol.
as §2
Total RNA (5 micrograms) extracted from cultured cells was reverse transcribed with Moloney murine leukemia virus reverse transcriptase (Invitrogen, Carlsbad, Calif.) and random hexamers (NEB) in a total volume of 20 microliters. The reverse transcription was performed according to the manufacturer's recommended protocol. […]

[11] = test system: LINE-1 DNA methylation in HepG2 cells (carboxylesterase dependence); test: Inhibition of carboxylesterase by NDGA: LINE-1 methylation in HepG2 cells; assay type: cell-based
Description: as §4
For dose effects of nordihydroguaiaretic acid (NDGA) on CES inhibition, HepG2 cells were grown in 6-well plates. […] Cells were harvested on day 4 by Tripsin-EDTA.

[12] = test system: epigenetically silenced GFP reporter gene in NIH3T3 cells; test: Epigenetic GFP reporter system, NIH3T3 cells with transient CES1 or CES2 transfection; assay type: cell-based; settings: NIH3T3 GFP reporter clone
Description: It was discovered that NPEOC-DAC could inhibit DNA methylation in cells expressing CES1 but not cells expressing CES2, and that inhibition of CES by NDGA blocked the ability of NPEOC-DAC to inhibit DNA methylation. […] Transfection of CES2 had no effect on NPEOC-DAC treatment and activation of GFP. NPEOC-DAC activation is dependent on CES1 expression.

HepG2 cells = test: Cell toxicity during drug treatment of HepG2 cells; assay type: cell-based; settings: for toxicity: 10 uM continual treatment, time course
Description: as §2

Solubility in water = assay type: physicochemical; settings: consequently dissolved in DMSO

SMILES	decrease in global DNA methylation (LINE-1) ([2]; 10 μM) [%]	decrease in global DNA methylation (LINE-1) [3] [%]	LINE-1 methylation level after treatment ([4]; 0.5 μM)	LINE-1 methylation level, time course ([4]; day 1)	LINE-1 methylation level, time course ([4]; day 7)	decrease in global DNA methylation (LINE-1) ([4]; 10 μM) [%]	decrease in global DNA methylation (LINE-1) [5] [%]	decrease in DNA methylation of ID4 [6] [%]	decrease in DNA methylation of ID4 [7] [%]	decrease in DNA methylation of ID4 [8] [%]	decrease in DNA methylation of ID4 [9] [%]	ID4 mRNA expression (RT-PCR) [10]	reactivation of GFP ([12]; no CES transfection)	toxicity (HepG2 cells)	further results
Nc1ncn([C@@H]2O[C@H](CO)[C@@H](O)[C@H]2O)c(=O)n1 [5-azacytidine]															in vivo plasma half-life [1]: 41 min
O=C(Nc1ncn([C@H]2C[C@H](O)[C@@H](CO)O2)c(=O)n1)OCCc1ccc([N+](=O)[O-])cc1 [NPEOC-DAC, 2′-deoxy-N4-[2-(4-nitrophenyl)ethoxycarbonyl]-5-azacytidine]	0.9	5.1	no detectable effect	did not begin to decrease LINE-1 methylation until day 3	38.9%	22.1	17.4	8.2	10.0	24.7	26.2	increased expression of ID4	without reactivation of GFP	less toxicity than observed with DAC	decrease in DNA methylation (LINE-1), time course ([2]; 10 μM, prolonged treatment (to day 14)): did not show any decrease; change in DNA methylation (LINE-1) ([2]; 3 days, up to the highest concentrations): no change in DNA methylation; delay in the effects compared to DAC [4]: 3 days; fold less efficient at inhibiting DNA methylation compared to DAC [4]: 23 fold; LINE-1 methylation level, time course ([4]; day 3): 43.7%; LINE-1 methylation level, time course ([4]; day 14): 30.9%; LINE-1 methylation level after treatment ([4]; 10 μM, concentration series): 42.0%; LINE-1 methylation level after treatment ([4]; 100 μM): 28.7%; LINE-1 methylation decreased by ([11]; 10 μM NPEOC-DAC alone): 49.7%; LINE-1 methylation level after treatment ([11]; 10 μM NPEOC-DAC alone): 24.5%; LINE-1 methylation change in combination with NDGA ([11]; in combination with NDGA (100 μM)): did not decrease; reactivation of GFP ([12]; transfection of CES2): no effect; reactivation of GFP ([12]; transient transfection of human CES1 gene): reactivation of GFP; solubility in water (Solubility in water): very low solubility in water
CC(Cc1ccc(O)c(O)c1)C(C)Cc1ccc(O)c(O)c1 (centres unmarked) [NDGA, nordihydroguaiaretic acid, reference compound]															effect on DNA methylation of HepG2 cells ([11]; 100 μM, alone): no effect
Nc1ncn([C@H]2C[C@H](O)[C@@H](CO)O2)c(=O)n1 [DAC, 5-aza-2′-deoxycytidine, reference compound]	57.1	11.0	46.0%	36.5%	returned to baseline	5.6	12.3	38.1	19.7	2.6	1.1	clear expression of ID4 could be detected	could be reactivated	significant toxicity	LINE-1 methylation level after treatment ([2]; 0.5 uM, 3 days): 26.8%; LINE-1 methylation level after treatment ([2]; 1 uM, 3 days): 21.0%; LINE-1 methylation level after treatment ([2]; 5 uM, 3 days): 35.7%; LINE-1 methylation level after treatment ([4]; 1 μM): 47.0%; LINE-1 methylation level after treatment ([4]; 5 μM): 56.9%; cell toxicity (HepG2 cells; higher concentrations (5 μM), 3 days): significant cell toxicity
